Reference: patent US11166940B2, “Treatment of cardiac disorders by blocking SK4 potassium channel” (Ramot at Tel-Aviv University Ltd., priority 2016, dated 2021)

Columns and labels:
normal hiPSC-CMs = assay: Spontaneous APs in hiPS-CMs derived from normal individuals; type: cell-based, human; conditions: 3 μM isoproterenol
Protocol: (§1) In all experiments, the coverslips were perfused at 33° C. with an external solution containing (in mM): 140 NaCl, 4 KCl, 11 Glucose, 1.2 MgCl2, 1.8 CaCl2, 5.5 HEPES titrated to pH 7.4 with NaOH and adjusted at 320 mOsm with sucrose.
FIG. 4E (Left) presents representative traces of spontaneous APs recorded in hiPS-CM derived from a normal individual. […] FIG. 4E (Right) are bar graphs presenting data summary of pacing rate (normalized to Ctrl; one-way ANOVA **P=0.0071, n=14), DD slope (paired t-test, ***P<0.0001, n=14) and APD50 (one-way ANOVA *P=0.0243, n=18).

CPVT2 hiPSC-CMs = assay: Spontaneous APs and DADs in hiPS-CMs derived from CPVT2 (CASQ2 D307H) patients; type: cell-based, human; conditions: 3 μM isoproterenol
Protocol: as §1
FIG. 4F (Left) presents representative traces of spontaneous APs recorded in hiPS-CM derived from a CPVT2 (CASQ2 D307H) patients. From a regular pacing (black trace), DADs appeared when the cell was exposed to 3 μM isoproterenol (red trace, arrows). […] The suppression of cell 540 automaticity was reversible upon washout (blue trace). FIG. 4F (Right) present bar graphs showing data summary of pacing rate (n=17), on APD50 (n=17) and DADs (Normalized to Ctrl; one-way ANOVA***P=0.0001, n=15).

[1] = system: SAN cells from CASQ2-D307H KI mice; assay: Spontaneous APs and DADs of isolated SAN cells from CASQ2 D307H KI mice; type: cell-based, mouse; conditions: 50 nM isoproterenol, after 1-2 minutes
Protocol: (§2) WT and CASQ2 D307H KI mice were anesthetized with isofluorane and sacrificed by cervical dislocation. The heart was rapidly removed and transferred into Tyrode solution containing heparin. […] The area was cleaned, cut into small strips and washed into a Low Calcium Solution, containing (in mM): 140 NaCl, 5.4 KCl, 0.5 MgCl2, 1.2 KH2PO4, 5 HEPES-NaOH, 50 taurine, 5.5 glucose (pH 6.9). The osmolarity was adjusted if needed to 315 mOsm.
The same solution, supplemented with 1 mg/ml albumin, 200 μM CaCl2, collagenase Type I (Worthington) or liberase TH (Roche), protease (Sigma) and elastase (Sigma) was used for enzymatic digestion as previously described [See, Mesirca, P., et al. Nat Commun 5, 4664 (2014)]. In this step, the tissue was gently resuspended with a polished Pasteur pipette in this solution for 9-13 minutes at 37° C. SAN samples were then washed three times in a modified “Kraftbrühe” solution, containing (in mM): 70 glutamic acid, 80 KOH, 20 KCl, 10 γ-Hydroxybutyric acid sodium salt, 10 KH2PO4, 10 HEPES-KOH, 10 taurine, 1 mg/ml albumin, 0.1 EGTA-KOH (pH 7.2). […] Cells were then gradually exposed to increasing concentrations of calcium, following a “Ca^2+ readaptation” protocol [Mesirca et al., 2014, supra]. […]
FIG. 5F (Left) presents representative traces of spontaneous APs recorded in single SAN cell from CASQ2 D307H KI mice. […]

[2] = system: intact SAN tissue preparations from WT mice; assay: Spontaneous calcium transients ex vivo in intact SAN tissue from WT mice (Fluo-4 AM); type: cell-based, mouse; conditions: 100 nM isoproterenol
Protocol: (§3) SAN tissue preparations were dissected ex vivo from WT and CASQ2-D307H KI mice as described in Torrente, A. G., et al. Proc Natl Acad Sci USA 112, 9769-9774 (2015). The dissected whole SAN tissue was pinned on a hand-made chamber and was incubated in a Tyrode solution containing 10 μM Fluo-4 AM (Thermo Fisher Scientific) and pluronic acid for 1 hour at 37° C. in the dark. The SAN tissue was washed in Tyrode at 37° C. in the dark for 10 minutes before experiments. Fluorescence of calcium transients was recorded using a photomultiplier (PTi D-104) at 35° C. and the analog signals were digitized using Digidata 1440 (Molecular Devices) and analyzed with pCLAMP 10.5 software.
(§4) To investigate the spontaneous calcium transients of the SAN, intact SAN tissue preparations dissected ex vivo from WT and CASQ2-D307H KI mice were exposed to Fluo-4 AM as previously described [Torrente, A. G., et al. Proc Natl Acad Sci USA 112, 9769-9774 (2015)].
FIG. 6A (Left) presents representative traces of spontaneous calcium transients recorded ex vivo in intact SAN tissue preparations from WT mice. […] Right: data summary of calcium transient rate (one-way-ANOVA***P=0.0003; n=12).

[3] = system: intact SAN from CASQ2 D307H KI mice; assay: Spontaneous calcium transients ex vivo in intact SAN tissue from CASQ2-D307H KI mice (Fluo-4 AM); type: cell-based, mouse; conditions: 100 nM isoproterenol
Protocol: as §3, §4
FIG. 6B presents representative traces of different types of calcium transient abnormalities recorded in intact SAN from CASQ2 D307H KI mice, termed as “local Ca^2+ release” (upper left), “double humped transients” (upper right), “large-stored released Ca^2+ waves” (lower left) and “calcium alternans” (lower right).
FIG. 6C presents representative trace of spontaneous calcium transients recorded from intact SAN of CASQ2 D307H KI. The baseline rate of calcium transients (control, black trace) yielded chaotic calcium transients (red trace) following incubation of the SAN with 100 nM isoproterenol.

SAN cells = assay: Spontaneous APs / pacing rate of isolated SAN cells from WT mice (patch clamp); type: cell-based, mouse; conditions: 50 nM isoproterenol
Protocol: as §2
The same solution, supplemented with 1 mg/ml albumin, 200 μM CaCl2, collagenase Type I (Worthington) or liberase TH (Roche), protease (Sigma) and elastase (Sigma) was used for enzymatic digestion as previously described [See, Mesirca, P., et al. Nat Commun 5, 4664 (2014)]. In this step, the tissue was gently resuspended with a polished Pasteur pipette in this solution for 9-13 minutes at 37° C. SAN samples were then washed three times in a modified “Kraftbrühe” solution, containing (in mM): 70 glutamic acid, 80 KOH, 20 KCl, 10 γ-Hydroxybutyric acid sodium salt, 10 KH2PO4, 10 HEPES-KOH, 10 taurine, 1 mg/ml albumin, 0.1 EGTA-KOH (pH 7.2). The same solution was used to re-suspend the single cells with a pipet by vigorous up and down, between 3 to 5 minutes at 37° C. Cells were then gradually exposed to increasing concentrations of calcium, following a “Ca^2+ readaptation” protocol [Mesirca et al., 2014, supra]. Experiments were performed the same day at 33° C.
as §1
The spontaneous automaticity of isolated SAN cells was recorded under perforated-patch conditions by adding 30 μM β-escin49 to the intracellular solution containing (in mM): 130 KCl, 10 NaCl, 10 HEPES, 0.2 EGTA-KOH, 2 MgATP, 6.6 Phosphocreatine, 0.05 cAMP and 1 μM free Ca^2+ (pH 7.2). To record SK4 K+ current, a voltage ramp protocol was applied. SAN and hiPS-CMs were held at −40 mV and −20 mV, respectively to substantially inactivate voltage-gated Na^+ and Ca^2+ currents. Cells were stepped from −90 mV to +60 mV for 150 ms. Then, a cocktail (solution 1) containing (in mM) 0.3 cadmium, 0.025 ZD-7288 and 0.01 E-4031 was applied extracellularly to inhibit residual L-type and T-type voltage-gated Ca2+ currents, If and the IKr currents, respectively. […] For voltage-clamp recording of SAN cells, the intracellular solution was the same to that described above for recording spontaneous automaticity.
The spontaneous electric activity of the cell was recorded in the current clamp configuration of the patch clamp technique before (black trace) and during (violet trace) exposure to 2 μM clotrimazole.
FIG. 5E (Left) presents representative traces of spontaneous APs recorded in single SAN cell from WT mice.

CC(C)NCC(O)c1ccc(O)c(O)c1 (centres unmarked) [Isoproterenol]
APD50 (normal hiPSC-CMs): reduced their APD50 | firing rate (normal hiPSC-CMs): significantly increased their firing rate | DADs (CPVT2 hiPSC-CMs): triggered DADs | chronotropic effect (CPVT2 hiPSC-CMs): did not produce positive chronotropic effect | DADs [1]: led to DADs | rate of calcium transients [2]: significantly increased | Ca2+ transient abnormalities [3]: produced various Ca^2+ transient abnormalities | pacing of SAN cells (SAN cells): significantly increased the pacing
